Marks after values point to notes of the source that are not given here. Square brackets hold non-standard residues; d marks the D form. Ends that are not written are not given here. Peptide text beside a SMILES is read from it. * marks the point of attachment. RG108 = O=C1c2ccccc2C(=O)N1[C@@H](Cc1c[nH]c2ccccc12)C(=O)*
Legend:
[1] = system: COL1 in HFF-1 dermal fibroblasts; assay: Collagen-1 ELISA in HFF-1 dermal fibroblasts (x11A); type: cell-based; conditions: peptide 2 uM, 72 hour; control (buffer) = 100
Description: (§1) Immune modulation functions of immodulator peptides have potential untility in the field of cosmetics. HFF-1 cell line was obtained from American Type Culture Collection (ATCC). Cells were grown in a T-75 flask in DMEM Medium containing 10% fetal bovine serum and penicillin-streptomycin at 37° C. in a humidified, 5% CO2 incubator. Cells ([…], 2,000 cells/well) were plated in a 96-well plate and incubated overnight at 37° C. in a humidified, 5% CO2 incubator. Next day, […] of compounds were added (quadruplicate wells). After 72 hour incubation with the compound, supernatants were collected for Collagen-1 ELISA assay and cell viability was measured in a luminometer after the addition of […] CellTiterGlo reagent (Promega Inc, Madison, WI) as recommended by the manufacturer.
Collagen stimulating activity of immodulator peptides in HFF-1 dermal fibroblasts. Peptides were added to cells at 2 uM. COL1 immunoreactivity was measured in the supernatants of cultured cells by ELISA using a rabbit monoclonal anti-COL1 primary antibody (Abcam, Cambridge, MA). Control (buffer) value of immunoreactivity was set to 100.

[2] = Competition binding assay to metal-charged NTA-coated plates (x2B b); conditions: PBS on calcium = 100
Description: NTA-metal-affinity fluorescence assay was performed using 96-well NTA-metal-coated plates readily available from commercial sources such as Qiagen (Germantown, MD). NTA was charged with ferrous or ferric iron, zinc, copper, calcium, vanadium, ruthenium, cobalt, titanium, manganese or other metals. 400 ng of FITC-labeled immodulator peptide (or biotinylated immodulator peptide complexed to Alexa-488-labeled streptavidin) in PBS buffer was added per plate. After incubation at room temperature for 60 minutes, excess peptide was washed off and peptide was detected by measuring fluorescence (excitation 490 nm, emmission 525 nm) in a fluorometer. • (a) Using FITC-labeled IM3 peptide (1 ug/well) in the fluorescent binding assay: • EDTA-treated control: 2,251±1,186 • Ferrous iron: 170,441±11,264 (p<0.001)* • Copper: 13,644±5566 (p<0.05)* • Calcium: 48,822±11,990 (p<0.01)* • *p values are relative to EDTA-treated control • (b) Competition binding assay to ferrous iron, calcium, copper and zinc-charged NTA-coated plates using FITC-labeled IM3 peptide (0.5 uM) and 8× (4 uM) unlabelled competitor peptides IM3N1, IM3N2 (*all comparisons to PBS control are p<0.01); # fluorescent value of binding to […] was set at 100.

STING = assay: THP1-Dual monocyte reporter, STING readout (x4A); type: cell-based; conditions: no peptide
Description: (§2) Immune modulation functions of immodulator peptides were measured using the monocyte reporter cell line THP1-Dual (Invivogen, San Diego, CA), which provides convenient readouts for STING and NF-kappa-B pathways. Optionally, succinic acid, cytokine and chemokine production were also measured. THP1-Dual cell line was obtained from Invivogen. Cells were grown in a T-75 flask in RPMI Medium containing 20% fetal bovine serum, blasticidin ([…]), zeocin ([…]) and penicillin-streptomycin at 37° C. in a humidified, 5% CO2 incubator. Cells ([…], 8,000 cells/well) were plated in a 96-well plate and incubated overnight at 37 °C in a humidified, 5% CO2 incubator. Next day, […] of compounds were added (quadruplicate wells). After 24 hour incubation with the compound, supernatants were harvested and stored at 4° C. prior to assay.
(§3) Each cell supernatant was assayed in quadruplicate. 20 uL of supernatant was used to measure NF-kappa-B (NFkB) and
(§4) STING activity using reagents QuantiBlu and QuantiLuc respectively, according to the manufacturer's recommendations (Invivogen, San Diego, CA). Succinic acid was measured by using a kit from Megazyme Inc (Cambridge, MA). Control value of activity was set to 100 in each assay. […] PAM3C=25 ng/ml PAM3CSK4 (TLR1/2 inducer); Poly(I:C)=10 ug/ml (TLR3 inducer); PAM2C=25 ng/ml PAM2CSK4 (TLR2/6 inducer); KIN14=4 uM KIN-1400 (RIG-I inducer); cytB=1 uM cytosporone B (Nur77 inducer); C-178=1 uM STING inhibitor; NFkBi=50 ug/ml NFkB inhibitor peptide; SB2021=10 uM p38MAPK inhibitor; *p<0.05, **p<0.01 vs IM3 control; #p<0.01 vs “no inducer” control; SUCC=succinic acid; nd=not done; Peptide was added to cells at 400 nM.
(§5) Peptides were added to cells at 400 nM. […]

NF-kappa-B (NFkB) = assay: THP1-Dual monocyte reporter, NF-kappa-B readout (x4A); type: cell-based; conditions: no peptide
Description: as §2, §3, §4, §5

THP1-Dual monocytes = assay: Succinic acid in THP1-Dual supernatant (x4A); type: cell-based; conditions: no peptide
Description: as §2, §4, §5

[3] = Iron binding of separately labeled peptides (x2E e); conditions: each peptide labeled separately; IM3 = 100; ferric iron
Description: (§6) Experiments were conducted by the procedure described above. Ferric iron-charged NTA-coated 96-well plates were used as described. 1 ug/well immodulator peptide complexed to Alexa-488-labeled streptavidin in PBS buffer was added (60 min at room temperature). The plate was washed and counted in a standard fluorometer (excitation/emission: 485/525 nm). The results (fluorescence) show improved iron-binding by the three peptides extended C-terminally by the AVD, (dA)VD, and FVS tripeptides. **p<0.01 vs IM3 control IM3: 200±29; IM4: 45±37**; IM5: 130±77; IM3AVD: 434±29**; IM3dAVD: 418±28**; IM3FVS: 371±33** • (c) Competition assay. The same procedure was used as the preceding experiment, except that 375 ng/well labeled IM3 peptide was used, plus 10× of the indicated unlabeled peptide. ‘No competing peptide’ control value was set to 100. *p<0.05 vs “no peptide” control Competing Peptide/Fluorescence • None: 100±38; IM4: 125±26; IM3: 63±27*; IM5: 40±14*; IM3AVD: 10±28* • (d) Competition assay. The same procedure was used as the preceding experiment, except that labeled IM3AVD peptide was used. **p<0.01 vs “no competing peptide” control • None: 100±9; IM4: 144±44; IM3: 35±16**; IM5: 30±19**; IM3AVD: 9±19** • (e) The same procedure was used as the preceding experiment, except that each peptide was labeled with Alexa-488-labeled streptavidin in PBS buffer and used separately. Binding to IM3 was set to =100. *p<0.05, **p<0.01 vs IM3 control. (Labeled Peptide/Fluorescence) IM1: 1.8±0.4**; IM2: 3.0±1.8**; IM3: 100.0±16.8; IM4: 7.2±1.7*; IM5: 86.7±6.4; IM6: 85.9±14.9; IM3AVD:137.7±11.8*; IM3dAVD:147.4±22.9*; IM3FVS: 101.5±10.5.

[4] = Strength of binding to iron, plate assay (x2E b); conditions: 1 ug/well peptide complexed to Alexa-488-streptavidin; ferric iron
Description: Immodulator peptides were extended C-terminally by three amino acids, to include a valine residue that is highly conserved in the “thyroglobulin type 1 motif”. The reasoning behind this attempt is that a longer conserved sequence might lead to a tighter fold overall, which might in turn result in increased metal-binding avidity. • (b) Strength of binding to iron was evaluated by plate assay.
as §6

A375 cells = assay: A375 cell viability, CellTiterGlo (x10A); type: cell-based; conditions: 72 hours
Description: as §1, with “have great” for “have”, “of cancer. A375” for “of cosmetics. HFF-1”, “(ATCC). They” for “(ATCC). Cells”, “compound,” for “compound, supernatants were collected for Collagen-1 ELISA assay and”
Experiment x10A. Anti-cancer activity of immodulator peptides on A375 cells. A 96-well plate was seeded with 2,000 A375 cells per well in DMEM medium containing 10% FBS and PenStrep. After 24 hrs at 37 deg C., compounds and peptides were added (each treatment done in quadruplicate). After a further 72 hours incubation, 100 uL/well of CTG assay reagent purchased from Promega Inc. (Madison, WI) was added. Plate was read after 10 minutes, as recommended by the manufacturer. Peptides were added at 2 uM. The results of this experiment are shown below, expressed as percent survival ofA375 cells.

[5] = 25 ng/ml PAM3CSK4 alone, control = 100
[6] = 25 ng/ml PAM2CSK4 alone, IM3 + PAM2C = 100
[7] = KIN1400 alone, IM3 + KIN1400 = 100

**Q.** With “AFNSYELGSKKGFYKKKQCRPSKGRKRGFCW [IM3K9.1]” as the molecule, how does the “COL1 immunoreactivity in supernatant” value [1] read?
**A.** Its value is 156**.

**Q.** What does the source list for “TGPSESYLQLEELVKQVVSKGFYKKKQCRPSKGRKRGFCW [IM3N2]”?
**A.** FITC-IM3 fluorescence with competitor ([2]; Calcium, 0.5 uM FITC-IM3, 8x (4 uM) unlabelled competitor): 12.9 ± 1.2*; FITC-IM3 fluorescence with competitor ([2]; Copper, 8x (4 uM) unlabelled competitor): 5.1 ± 1.0*; FITC-IM3 fluorescence with competitor ([2]; Ferrous iron, 8x (4 uM) unlabelled competitor): 25.2 ± 9.5*; FITC-IM3 fluorescence with competitor ([2]; Zinc, 8x (4 uM) unlabelled competitor): 13.4 ± 1.6*

**Q.** Which results are given for PAM3CSK4 [reference compound]?
**A.** STING (STING; [5]): 342 #; NFkB (NF-kappa-B (NFkB); [5]): 326 #

**Q.** For “AFNSYELGSKGFYKKKQCRPSKGRKRGFCWAVDKY [IM3K9c]”, which “COL1 immunoreactivity in supernatant” value [1] is on record?
**A.** The value was 158**.

**Q.** Which STING (STING; [6]) does the source give for PAM2CSK4 [reference compound] here?
**A.** The STING was 144.5**.

**Q.** What about the NFkB (NF-kappa-B (NFkB); [6]) of the same molecule?
**A.** Its NFkB is 118.7**.

**Q.** And the SUCC (THP1-Dual monocytes; [6])?
**A.** Its SUCC is 121.5*.

**Q.** Which “fluorescence of labeled peptide” value [3] does the source give for `CC(C)[C@H](NC(=O)[C@H](Cc1ccccc1)NC(=O)[C@H](Cc1c[nH]c2ccccc12)NC(=O)[C@H](CS)NC(=O)[C@H](Cc1ccccc1)NC(=O)CNC(=O)[C@H](CCCNC(=N)N)NC(=O)[C@H](CCCCN)NC(=O)[C@H](CCCNC(=N)N)NC(=O)CNC(=O)[C@H](CCCCN)NC(=O)[C@H](CO)NC(=O)[C@@H]1CCCN1C(=O)[C@H](CCCNC(=N)N)NC(=O)[C@H](CS)NC(=O)[C@H](CCC(N)=O)NC(=O)[C@H](CCCCN)NC(=O)[C@H](CCCCN)NC(=O)[C@H](CCCCN)NC(=O)[C@H](Cc1ccc(O)cc1)NC(=O)[C@H](Cc1ccccc1)NC(=O)CNC(=O)[C@H](CCCCN)NC(=O)[C@@H](N)CCCCN)C(=O)N[C@@H](CO)C(=O)O` [IM3FVS] (H-KKGFYKKKQCRPSKGRKRGFCWFVS-OH; N-terminus and C-terminus assumed) here?
**A.** Its value is 101.5±10.5.

**Q.** And the “fluorescence (iron binding)” value [4]?
**A.** The value was 371±33.

**Q.** For FNSYELGSLKKGFYKKKQCRPSKGRKRGFCW [IM3K8], which “COL1 immunoreactivity in supernatant” value [1] is on record?
**A.** The value was 98.

**Q.** Which “percent survival of A375 cells” value (A375 cells; peptide 2 uM + Kin1400 4 uM (RIG-I agonist)) does the source give for “(rg108)-KKGFYKKKQCRPSKGRKRGFCW (RG108-KKGFYKKKQCRPSKGRKRGFCW; cysteine pairing not given here) [IM3rg8, IM3 N-terminally conjugated with RG108]” here?
**A.** The value was 105.8%.

**Q.** What about the “percent survival of A375 cells” value (A375 cells; peptide 2 uM, Buffer) of the same molecule?
**A.** Its value is 89.9** percent.

**Q.** Which “COL1 immunoreactivity in supernatant” value [1] does the source give for AFNSYELGSKGFYKKKQCRPSKGRKRGFCW [IM3K9] here?
**A.** Its value is 155**.

**Q.** With `Oc1c(C(Nc2nc3ccccc3s2)c2ccc(OC(F)F)cc2)ccc2cccnc12` (centres unmarked) [KIN1400, KIN-1400, reference compound] as the molecule, how does the “percent survival of A375 cells” value (A375 cells; Kin1400 4 uM alone, no peptide) read?
**A.** Its value is 100.7%.

**Q.** And the STING (STING; [7])?
**A.** Its STING is 84.3**.

**Q.** What about the NFkB (NF-kappa-B (NFkB); KIN1400 (RIG-I agonist) alone, IM3 + KIN1400 = 100) of the same molecule?
**A.** The NFkB was 90.1.

**Q.** And the SUCC (THP1-Dual monocytes; [7])?
**A.** The SUCC was 100.1.

**Q.** With “KKGFYKKKQCRPSKGRKRGFCW(dA)VD (KKGFYKKKQCRPSKGRKRGFCW[dA]VD; cysteine pairing not given here) [IM3dAVD, IM3 extended C-terminally by (dA)VD]” as the molecule, how does the “fluorescence of labeled peptide” value [3] read?
**A.** Its value is 147.4±22.9.

**Q.** What about the “fluorescence (iron binding)” value [4] of the same molecule?
**A.** Its value is 418±28.
